Patent US20080103185A1, “Process for Producing Thiazolidinedione Compound and Production Intermediate Thereof” (DAIICHI SANKYO COMPANY, LIMITED, priority 2005, published 2008)

Assay: Test for quality and stability over time of compound (III^1) crystals, HPLC peak area content
Format: physicochemical
Settings: HPLC area %
Description: Test for quality and stability over time of tert-butyl N-{2-{4-[(2,4-dioxothiazolidin-5-yl)methyl]phenoxyacetylamino}-5-methoxyphenyl}-N-methylcarbamate (compound (III^1))
Quality of four samples (the crystals obtained in Example 3, the crystals obtained in Example 3 and stored at 40° C. for 40 days, the purified crystals obtained in Example 4 and the purified crystals obtained in Example 4 and stored at 40° C. for 42 days) was analyzed. Quality was analyzed by the following method.
A solution of about 10 mg/L of the compound (III^1) in acetonitrile-water (4:1) was prepared.
About 20 μL of the sample solution was analyzed by high-performance liquid chromatography under the following conditions.
Column: L-column ODS 4.6×250 mm (Chemicals-Evaluation and Research Institute, Japan)
Mobile phase: 0.02 M ammonium acetate solution/acetonitrile mixture (55:45)
Detection wavelength: 220 nm
Measurement temperature: 40° C.
Peak areas were determined from chromatograms, respectively, to provide a content of each component (%) 100× (peak area of each component)/(total peak area of all components).

| content of component at relative retention time 3.01 (crystals stored at 40° C. for 40 days, immediately after drying 0.05) [%] | content of component at relative retention time 0.46 (crystals stored at 40° C. for 40 days, immediately after drying 0.16) [%] | content of component at relative retention time 0.43 (crystals stored at 40° C. for 40 days, immediately after drying 0.39) [%] | Total of other components (crystals stored at 40° C. for 40 days, immediately after drying 0.54) [%] | content of component at relative retention time 0.21 (crystals stored at 40° C. for 40 days, immediately after drying 0.60) [%] | Total of impurities (crystals stored at 40° C. for 40 days, immediately after drying 1.74) [%] | content of test substance (relative retention time 1.00) (crystals stored at 40° C. for 40 days, immediately after drying 98.26) [%] | content of component at relative retention time 3.01 (purified crystals stored at 40° C. for 42 days, immediately after drying 0.04) [%] | content of component at relative retention time 0.43 (purified crystals stored at 40° C. for 42 days, immediately after drying 0.07) [%] | content of component at relative retention time 0.46 (purified crystals stored at 40° C. for 42 days, immediately after drying 0.08) [%] | content of component at relative retention time 0.21 (purified crystals stored at 40° C. for 42 days, immediately after drying 0.19) [%] | Total of other components (purified crystals stored at 40° C. for 42 days, immediately after drying 0.25) [%] | Total of impurities (purified crystals stored at 40° C. for 42 days, immediately after drying 0.63) [%] | content of test substance (relative retention time 1.00) (purified crystals stored at 40° C. for 42 days, immediately after drying 99.37) [%] | Compound |
| --- | --- | --- | --- | --- | --- | --- | --- | --- | --- | --- | --- | --- | --- | --- |
| 0.05 | 0.48 | 0.32 | 0.56 | 0.63 | 2.04 | 97.96 |  |  |  |  |  |  |  | COc1ccc(NC(=O)COc2ccc(CC3SC(=O)NC3=O)cc2)c(N(C)C(=O)OC(C)(C)C)c1 (centres unmarked) [Crystals of Example 3, tert-Butyl N-{2-{4-[(2,4-dioxothiazolidin-5-yl)methyl]phenoxyacetylamino}-5-methoxyphenyl}-N-methylcarbamate] |
|  |  |  |  |  |  |  | 0.03 | 0.07 | 0.09 | 0.26 | 0.20 | 0.65 | 99.35 | COc1ccc(NC(=O)COc2ccc(CC3SC(=O)NC3=O)cc2)c(N(C)C(=O)OC(C)(C)C)c1 (centres unmarked) [Purified crystals of Example 4, tert-Butyl N-{2-{4-[(2,4-dioxothiazolidin-5-yl)methyl]phenoxyacetylamino}-5-methoxyphenyl}-N-methylcarbamate] |
